Earlier results, collected in US5424456A, “N-arylalkylderivatives of 2-aminomethyl-2,3-dihydro-1,4-benzodioxine and the process of preparation thereof” (Vyzkumny Ustav Pro Farmacii A Biochemii s.p., priority 1991, dated 1995).

What was measured:
[1] = compared to Verapamil; cited from earlier work
α-adrenergic receptors = conditions: cited from earlier work

For `COc1ccc(CCN(C)CCCC(C#N)(c2ccccc2C)C(C)C)cc1OC` (centres unmarked) [Mepamil], the negative inotropic activity [1] is given as “lower negative inotropic activity”.
For `c1ccc2c(c1)OCC(CN1CCCCC1)O2` (centres unmarked) [Piperoxan], the α-adrenergic receptor blocking (α-adrenergic receptors) is listed as “block the α-adrenergic receptors in a competitive manner”.
